CCOC(=O)CCc1ccc2c(c1)CCC(CNC[C@H](O)c1cccc(Cl)c1)O2.Cl (some centres unmarked)
melting point: 189 to 190 °C

CCOC(=O)c1ccc2c(c1)CCC(CNC[C@H](O)c1cccc(Cl)c1)O2.Cl (some centres unmarked)
melting point: 234 to 235 °C

Reference: patent US6797714B2, “Carboxyl substituted chroman derivatives useful as beta 3 adrenoreceptor agonists” (Bayer Pharmaceuticals Corporation, priority 1997, dated 2004)
